The text below walks through data of article PMC8757611, “Synthesis, biological evaluation, and molecular docking of new series of antitumor and apoptosis inducers designed as VEGFR-2 inhibitors” (Journal of Enzyme Inhibition and Medicinal Chemistry, 2022).

One data set has as its system HepG2. As to the kind of experiment: In vitro antitumor MTT assay, HepG2. The class given is cell-based, human. The settings on record: for IC50: Homo sapiens, HepG2, MTT, mean ± S.D. of three experiments. The method, then: (§1) The antitumor assay was performed against the human cancer cell lines: HepG2, PC3, and MCF-7. The chemicals used in this test were supplied by Sigma-Aldrich with high analytical grade. National Cancer Institute (Cairo, Egypt) was the supplier of the cell lines tested which originally obtained from American Type Culture Collection (ATCC). MTT protocol was applied to quantitatively measure the antiproliferative activity of the new derivatives. In this test, the colour change is attributed to that the yellow tetrazolium bromide (MTT) is converted to formazan derivative which has purple colour. This biochemical reaction occurs only in viable cells by mitochondrial succinate dehydrogenase. The tested cells were initially cultured in RPMI-1640 medium with foetal bovine serum (10%). To the incubated cell, streptomycin (100 µg/mL) and penicillin (100 units/mL) were added in a 5% CO2 incubator at 37 °C. Then seeding of the cells was performed in a 96-well plate under 5% CO2 and at density of 1.0 × 10^4 cells/well at 37 °C for 48 h. Various non-toxic concentrations of the tested candidates were added and the cells were then incubated for further 24 h to the cells treated with the new compounds, MTT solution (20 µL at 5 mg/mL) was added, followed by 4 h incubation. One hundred microlitres of Dimethyl sulfoxide (DMSO) were added into each well to dissolve the purple formazan formed which is colorimetrically absorbed at 570 nm using a plate reader (EXL 800, USA). Finally, the percentages of cell viability was obtained as (A570 of treated samples/A570 of untreated sample) × 100.

Another data set concerns PC3. As to the kind of experiment: In vitro antitumor MTT assay, PC3. The class given is cell-based, human. As to conditions: for IC50: Homo sapiens, PC-3, MTT, mean ± S.D. of three experiments. The procedure: as §1
The subject of a further data set is WI-38. As to the kind of experiment: Cytotoxicity against normal lung fibroblasts (MTT). As to conditions: normal human lung fibroblasts. The class given is cell-based. The procedure:
as §1
Of note, the cytotoxicity against normal human lung fibroblasts cell line (WI-38) were examined for the nine selected compounds.

A further data set deals with T1, VEGFR-2 kinase (Homo sapiens, UniProt P35968).
T1 construct: purchased
T1 sequence (P35968 20-1356): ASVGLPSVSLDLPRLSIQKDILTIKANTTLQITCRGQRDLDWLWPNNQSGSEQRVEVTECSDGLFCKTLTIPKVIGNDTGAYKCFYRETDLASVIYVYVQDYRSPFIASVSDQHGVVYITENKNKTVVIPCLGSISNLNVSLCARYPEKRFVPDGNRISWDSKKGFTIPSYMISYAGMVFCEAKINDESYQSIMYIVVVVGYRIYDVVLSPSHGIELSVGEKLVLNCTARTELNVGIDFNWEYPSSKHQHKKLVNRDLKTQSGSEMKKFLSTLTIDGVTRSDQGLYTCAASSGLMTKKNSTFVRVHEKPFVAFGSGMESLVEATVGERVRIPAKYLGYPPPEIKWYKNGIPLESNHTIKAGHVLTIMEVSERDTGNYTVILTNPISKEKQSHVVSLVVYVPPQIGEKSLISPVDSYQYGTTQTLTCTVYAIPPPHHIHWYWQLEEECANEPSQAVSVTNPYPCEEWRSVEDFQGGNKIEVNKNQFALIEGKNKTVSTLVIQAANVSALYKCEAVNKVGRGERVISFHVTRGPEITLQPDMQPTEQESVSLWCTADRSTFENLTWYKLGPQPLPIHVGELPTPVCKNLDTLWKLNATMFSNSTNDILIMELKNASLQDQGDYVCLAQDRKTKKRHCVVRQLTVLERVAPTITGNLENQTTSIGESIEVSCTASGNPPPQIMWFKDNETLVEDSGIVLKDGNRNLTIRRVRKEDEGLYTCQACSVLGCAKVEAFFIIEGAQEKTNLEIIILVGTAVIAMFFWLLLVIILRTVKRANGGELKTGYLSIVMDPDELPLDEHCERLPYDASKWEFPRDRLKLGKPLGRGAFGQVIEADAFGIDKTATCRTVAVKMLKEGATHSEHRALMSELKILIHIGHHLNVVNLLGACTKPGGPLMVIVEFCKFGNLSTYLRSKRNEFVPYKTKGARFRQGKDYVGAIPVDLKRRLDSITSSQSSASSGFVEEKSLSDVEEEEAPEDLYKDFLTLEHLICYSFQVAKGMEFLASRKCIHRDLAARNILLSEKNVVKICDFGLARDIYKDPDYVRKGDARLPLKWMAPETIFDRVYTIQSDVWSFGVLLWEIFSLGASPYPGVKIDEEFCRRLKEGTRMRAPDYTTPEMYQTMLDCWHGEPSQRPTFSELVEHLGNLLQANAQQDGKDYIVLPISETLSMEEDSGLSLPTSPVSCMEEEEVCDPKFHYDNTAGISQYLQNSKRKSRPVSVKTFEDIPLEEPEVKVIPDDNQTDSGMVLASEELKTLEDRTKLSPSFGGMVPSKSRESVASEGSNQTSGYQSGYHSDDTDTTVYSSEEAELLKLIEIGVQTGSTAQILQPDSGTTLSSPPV
As to the kind of experiment: VEGFR-2 inhibition testing (ELISA kit). The class given is biochemical. The method, then:
Enzyme linked immunosorbent assay (ELISA) technique was applied to human VEGFR-2 ELISA kit to calculate IC50 of all new derivatives against VEGFR-2 kinase. The antibody specific to the enzyme was planted on a 96 well microplate to which different micromolar concentrations of the positive control and the new compounds was added. […] Finally, stop solution (50 µL) was added and the reading was immediately determined at 450 nm. To get the standard curve, the concentrations used were presented on the X-axis and the corresponding absorbances were on the Y-axis.

Another data set relates to MCF-7. As to the kind of experiment: In vitro antitumor MTT assay, MCF-7. The class given is cell-based, human. The settings on record: for IC50: Homo sapiens, MCF7, MTT, mean ± S.D. of three experiments. The method, then: as §1
Data set [1] has as its system human cancer cell lines HepG2, PC3, MCF-7. Nature of the data set: In vitro antitumor MTT assay, panel of HepG2, PC3 and MCF-7. The class given is cell-based. As to conditions: range over HepG2, PC3 and MCF-7, read-out: IC50 against human cancer cell lines. The procedure: as §1
The next data set relates to VEGFR-2. Also noted: method as in PMID 22153662. As to conditions: cited from earlier work.
Another data set addresses FGFR. Nature of the data set: Multi-kinase assay (HTRF), FGFR. The class given is biochemical. The method, then: Different kinases and ATP were obtained from Sigma. The specified kinase and its substrate was incubated with compound for 5 min in buffer solution to start the enzymatic reaction; ATP was then added to the reaction mixture and was maintained for 30 min at room temperature.

Turning to `O=C(Nc1ccc(Oc2nc(Cl)nc3ccccc23)cc1)c1ccc(Cl)cc1` [Compound 15b, 4-Chloro-N-(4-((2-chloroquinazolin-4-yl)oxy)phenyl)benzamide], the melting point is 249 to 250 °C. The compound further registered an IC50 with HepG2 of 17.4 ± 1.54 µM. The “potency relative to sorafenib potency, HepG2” value in the data set on HepG2 (fraction of sorafenib potency) amounted to 0.74. In the data set with PC3, half-maximal inhibition (IC50) required 25.6 ± 2.31 µM. Also, the “potency relative to sorafenib potency, PC3” value in the data set with PC3 (fraction of sorafenib potency) is on record as 0.76. This compound also had an IC50 in the data set with WI-38 of 233 ± 2.39 µM. For the same compound, the IC50 on VEGFR-2 kinase turned out to be 0.0864 ± 0.00176 µM. In addition, in the data set with MCF-7, the IC50 was found to be 19.9 ± 1.79 µM. For the same compound, in the data set with MCF-7 (fraction of sorafenib potency), the “potency relative to sorafenib potency, MCF-7” value was found to be 0.73. Moreover, the IC50 in data set [1] lay in the range of 17.4 to 47.1 µM.

In turn, `O=C(Nc1ccc(Oc2nc3ccccc3nc2Cl)cc1)c1cccc(Cl)c1` [Compound 20c, 3-Chloro-N-(4-((3-chloroquinoxalin-2-yl)oxy)phenyl)benzamide] returned a melting point of 243 to 244 °C. In addition, in the data set on HepG2, the IC50 came to 144 ± 9.51 µM. In the data set on PC3, this compound showed an IC50 of 157 ± 10 µM. The compound also gave an IC50 with WI-38 of 402.9 ± 3.26 µM. The compound also yielded an IC50 on VEGFR-2 kinase of 0.0866 ± 0.00175 µM. In addition, in the data set with MCF-7, the IC50 stood at 135 ± 9.02 µM.

For the compound `O=C(Nc1ccc(Oc2ccccc2[N+](=O)[O-])cc1)c1cccc(Cl)c1` [Compound 23b, 3-Chloro-N-(4–(2-nitrophenoxy)phenyl)benzamide], the melting point is 169 to 170 °C. On VEGFR-2 kinase, this compound yielded an IC50 of 0.105 ± 0.0025 µM.

Regarding `O=C(Nc1ccccc1)Nc1ccc(Oc2nc3ccccc3nc2Cl)cc1` [Compound 19a, 1-(4-((3-Chloroquinoxalin-2-yl)oxy)phenyl)-3-phenylurea], the melting point was 248 to 249 °C. In addition, the IC50 on VEGFR-2 kinase was determined as 0.0936 ± 0.00182 µM.

Turning to `O=C(Nc1ccc(Oc2nc3ccccc3nc2Cl)cc1)c1ccccc1` [Compound 20a, N-(4-((3-Chloroquinoxalin-2-yl)oxy)phenyl)benzamide], the melting point lay in the range of 258 to 259 °C. The same compound displayed a half-maximal inhibitory concentration (IC50) against VEGFR-2 kinase of 0.108 ± 0.00225 µM.

`CCCCNC(=O)Nc1ccc(Oc2ccccc2[N+](=O)[O-])cc1` [Compound 22b, 1-Butyl-3-(4-(2-nitrophenoxy)phenyl)urea]: the melting point lay within 163 to 164 °C. In addition, inhibition against VEGFR-2 kinase was half-maximal at 0.107 ± 0.002 µM (IC50).

For the compound `O=C(Nc1ccc(Oc2ccccc2[N+](=O)[O-])cc1)c1cccnc1` [Compound 23c, N-(4–(2-Nitrophenoxy)phenyl)nicotinamide], the melting point lay in the range of 160 to 161 °C. Moreover, the IC50 at VEGFR-2 kinase came out at 0.119 ± 0.00316 µM.

`O=C(Nc1ccccc1)Nc1ccc(Oc2nc(Cl)nc3ccccc23)cc1` [Compound 14a, 1-(4-((2-Chloroquinazolin-4-yl)oxy)phenyl)-3-phenylurea] came in with a melting point of 236 to 237 °C. Also, in the data set with HepG2, 41.5 ± 3.6 µM corresponded to half-maximal inhibition (IC50). Further, the IC50 in the data set with PC3 was 50.7 ± 4.36 µM. Further, the IC50 with WI-38 stood at 235 ± 2.43 µM. In addition, the IC50 at VEGFR-2 kinase amounted to 0.0671 ± 0.00107 µM. Also, in the data set on MCF-7, the IC50 was 58.3 ± 4.87 µM.

Consider `CNC(=O)c1cc(Oc2ccc(NC(=O)Nc3ccc(Cl)c(C(F)(F)F)c3)cc2)ccn1` [Sorafenib, reference compound], for which the IC50 turned out to be 12.9 ± 0.85 µM in the data set on HepG2, 19.4 ± 1.34 µM in the data set on PC3 and 14.5 ± 1.68 µM in the data set with MCF-7.

As for `CCCCNC(=O)Nc1ccc(Oc2nc3ccccc3nc2Cl)cc1` [Compound 19b, 1-Butyl-3-(4-((3-chloroquinoxalin-2-yl)oxy)phenyl)urea], the melting point was 227 to 228 °C. In addition, inhibition in the data set on HepG2 was half-maximal at 73.4 ± 5.95 µM (IC50). Also, 84.4 ± 6.68 µM corresponded to half-maximal inhibition with PC3 (IC50). The IC50 in the data set with WI-38 is 230 ± 2.51 µM. On VEGFR-2 kinase, this compound registered an IC50 of 0.0752 ± 0.00157 µM. In the data set with MCF-7, this compound had an IC50 of 105 ± 7.57 µM.

In the case of `COc1cccc2c1C(=O)c1c(O)c3c(c(O)c1C2=O)C[C@@](O)(C(=O)CO)C[C@@H]3O[C@H]1C[C@H](N)[C@H](O)[C@H](C)O1` [Doxorubicin, reference compound], the IC50 with HepG2 was 14.6 ± 1.1 µM; with PC3, 16.3 ± 1.1 µM; in the data set on MCF-7, 12.4 ± 0.74 µM.

For the compound `O=C(Nc1ccc(Oc2nc3ccccc3nc2Cl)cc1)c1cccnc1` [Compound 20d, N-(4-((3-Chloroquinoxalin-2-yl)oxy)phenyl)nicotinamide], the melting point was 219 to 220 °C. The compound further had an IC50 in the data set with HepG2 of 221 ± 11.4 µM. In the data set on PC3, the IC50 was more than 300 µM. In the data set on WI-38, this compound yielded an IC50 of 460.7 ± 4.04 µM. Moreover, the IC50 on VEGFR-2 kinase was found to be 0.0696 ± 0.00116 µM. The compound further gave an IC50 with MCF-7 of 246 ± 13.6 µM.

On to `COc1cc2ncnc(Oc3ccc(CC(=O)Nc4cnn(C(C)C)c4)cc3)c2cc1OC` [AZD-2932], for which the IC50 in the data set on VEGFR-2 is […].

With `O=C(Nc1ccc(Oc2nc(Cl)nc3ccccc23)cc1)c1ccccc1` [Compound 15a, N-(4-((2-Chloroquinazolin-4-yl)oxy)phenyl)benzamide], the melting point was in the range of 244 to 245 °C. Besides, inhibition in the data set with HepG2 was half-maximal at 34.6 ± 2.82 µM (IC50). The same compound came in with an IC50 in the data set with PC3 of 30.3 ± 2.56 µM. In the data set with WI-38, this compound returned an IC50 of 250 ± 2.51 µM. Besides, the IC50 against VEGFR-2 kinase was 0.0673 ± 0.00154 µM. In addition, 47.1 ± 3.59 µM corresponded to half-maximal inhibition in the data set with MCF-7 (IC50). In addition, in [1], the IC50 lay in the range of 17.4 to 47.1 µM.

Consider `O=C(Nc1ccc(Oc2nc3ccccc3nc2Cl)cc1)c1ccc(Cl)cc1` [Compound 20b, 4-Chloro-N-(4-((3-chloroquinoxalin-2-yl)oxy)phenyl)benzamide], for which the melting point lay in the range of 264 to 265 °C. The IC50 against VEGFR-2 kinase was found to be 0.114 ± 0.00283 µM.

Compound `C#Cc1cccc(Nc2ncnc3cc(OCCOC)c(OCCOC)cc23)c1` [Erlotinib, reference compound] had an IC50 against FGFR of 0.034 ± 0.00092 µM.

Compound `CCCCNC(=O)Nc1ccc(Oc2nc(Cl)nc3ccccc23)cc1` [Compound 14b, 1-Butyl-3-(4-((2-chloroquinazolin-4-yl)oxy)phenyl)urea] registered a melting point of 214 to 215 °C. At VEGFR-2 kinase, this compound registered an IC50 of 0.0942 ± 0.00153 µM.

With `O=C(Nc1ccccc1)Nc1ccc(Oc2ccccc2[N+](=O)[O-])cc1` [Compound 22a, 1-(4-(2-Nitrophenoxy)phenyl)-3-phenylurea], the melting point was in the range of 175 to 176 °C. The compound also came in with an IC50 at VEGFR-2 kinase of 0.124 ± 0.00378 µM.

`O=C(Nc1ccc(Oc2ccccc2[N+](=O)[O-])cc1)c1ccccc1` [Compound 23a, N-(4–(2-Nitrophenoxy)phenyl)benzamide] registered a melting point of 197 to 198 °C. Also, in the data set with HepG2, half-maximal inhibition (IC50) was put at 153 ± 10.8 µM. This compound came in with an IC50 in the data set on PC3 of 221 ± 12.9 µM. In addition, the IC50 in the data set on WI-38 is 758.2 ± 5.15 µM. Also, 0.0748 ± 0.00167 µM corresponded to half-maximal inhibition against VEGFR-2 kinase (IC50). Moreover, the IC50 in the data set with MCF-7 was 234 ± 13.2 µM.

`O=C(Nc1ccc(Oc2nc(Cl)nc3ccccc23)cc1)c1cccc(Cl)c1` [Compound 15c, 3-Chloro-N-(4-((2-chloroquinazolin-4-yl)oxy)phenyl)benzamide] displayed a melting point of 229 to 230 °C. In the data set with HepG2, this compound had an IC50 of 50.4 ± 4.39 µM. In the data set on PC3, this compound returned an IC50 of 56 ± 1.9 µM. This compound displayed an IC50 with WI-38 of 236 ± 2.39 µM. Moreover, the IC50 against VEGFR-2 kinase came to 0.0652 ± 0.00136 µM. This compound gave a half-inhibitory concentration (IC50) in the data set with MCF-7 of 62.7 ± 5.12 µM.
